These results are taken from article PMC10349828, “Mechanistic investigation of a D to N mutation in DAHP synthase that dictates carbon flux into the shikimate pathway in yeast” (Communications Chemistry, 2023).

As usually defined, the Kd is the concentration at which binding is half-saturated. A low value points to higher affinity. The term inhibition denotes how much of the control response was suppressed. A word on the remaining activity: it is what remains of the control signal, in per cent.

Assay [1] has as its target T1, Aro3 (Saccharomyces cerevisiae, UniProt P14843).
T1 construct: full-length ORF in pET21, C-terminal His6 tag, expressed in E. coli Rosetta 2 (DE3); Ni-NTA and gel filtration; dimer in crystal
As to the kind of experiment: isothermal titration calorimetry. The assay is classed as binding. On the technique in general: In ITC the heat of successive injections is recorded.

Assay [2] has as its target T2, Aro3 (Saccharomyces cerevisiae, UniProt P14843, K222L).
T2 construct: full-length ORF in pET21, C-terminal His6 tag, expressed in E. coli Rosetta 2 (DE3); Ni-NTA and gel filtration; dimer in crystal
As to the kind of experiment: DAHP formation, periodate-thiobarbituric acid assay at […] nm. It counts as biochemical. The conditions noted are these: read-out: % inhibition at 0.1 mM.

In assay [3] the target is T3, Aro3 (Saccharomyces cerevisiae, UniProt P14843, D154N).
T3 construct: full-length ORF in pET21, C-terminal His6 tag, expressed in E. coli Rosetta 2 (DE3); Ni-NTA and gel filtration; dimer in crystal
T3 sequence (P14843 whole entry D154N): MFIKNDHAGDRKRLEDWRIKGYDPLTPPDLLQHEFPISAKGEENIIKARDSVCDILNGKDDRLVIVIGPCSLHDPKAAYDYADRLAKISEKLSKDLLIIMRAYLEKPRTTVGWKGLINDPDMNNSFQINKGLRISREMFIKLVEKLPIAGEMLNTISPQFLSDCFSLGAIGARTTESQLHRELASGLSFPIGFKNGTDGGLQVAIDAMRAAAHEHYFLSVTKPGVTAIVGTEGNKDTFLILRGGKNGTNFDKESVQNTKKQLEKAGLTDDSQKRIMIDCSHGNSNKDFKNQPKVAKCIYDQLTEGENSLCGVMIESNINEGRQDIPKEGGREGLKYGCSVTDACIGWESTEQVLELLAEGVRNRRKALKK
The assay is described as follows: isothermal titration calorimetry. The assay is classed as binding.

The target in assay [4] is T1, Aro3. The assay is described as follows: DAHP formation, periodate-thiobarbituric acid assay at […] nm. It counts as biochemical. The settings on record: read-out: % inhibition at 0.1 mM.
Assay [5] concerns the target T3, Aro3. Described as above. The assay is classed as biochemical. The settings on record: read-out: % remaining activity at 10 mM.

T1 sequence (P14843 whole entry): as the sequence (P14843 whole entry D154N) above, with N154D counted along it
T2 sequence (P14843 whole entry K222L): as the sequence (P14843 whole entry D154N) above, with N154D, K222L counted along it

For the compound `N[C@@H](Cc1ccccc1)C(=O)O` [L-Phe], the Kd at Aro3 [1] amounted to 31.4 µM; at Aro3 [3] it was 336 ± 31.2 µM. Further, the inhibition at 100 µM on Aro3 [2] and at Aro3 [4] was approximately 50% each time. Further, the remaining activity at 10000 µM on Aro3 [5] was determined as 71.2%.
